Results published in patent publication US20200038513A1, “MODULATORS OF FAK PROTEOLYSIS AND ASSOCIATED METHODS OF USE” (ARVINAS OPERATIONS, INC., priority 2018, published 2020).

Tested on: MDA-MB-231 cells
Experiment: RPPA (reverse phase protein array)
Assay type: cell-based, human
Description: RPPA analysis was performed by MD Anderson Cancer Center RPPA core facility.
Examination of the Molecular Signaling Events) and/or Downstream Pathways Responsible for the Migration and Invasion Effects Observed by Exemplary Compound Treatment. To pinpoint these observations to a molecular signaling event or specific downstream pathway, reverse phase protein array (RPPA) analysis was performed (Table 4).

## Cc1ncsc1-c1ccc(CNC(=O)[C@@H]2C[C@@H](O)CN2C(=O)[C@@H](NC(=O)CCOCCOc2ccc(Nc3ncc(C(F)(F)F)c(NCc4cccc(N(C)S(C)(=O)=O)c4)n3)cc2)C(C)(C)C)cc1 [Compound 102, (2S,4R)-1-((S)-3,3-dimethyl-2-(3-(2-(4-((4-((3-(N-methylmethylsulfonamido)benzyl)amino)-5-(trifluoromethyl)pyrimidin-2-yl)amino)phenoxy)ethoxy)propanamido)butanoyl)-4-hydroxy-N-(4-(4-methylthiazol-5-yl)benzyl)pyrrolidine-2-carboxamide]
500nM
  rel. Protein level, Mnk1: 97.2%
  rel. Protein level, Myosin-11: 101.0%
  rel. Protein level, Myosin-IIa_pS1943: 113.7%
  rel. Protein level, Myt1: 93.2%
  rel. Protein level, N-Cadherin: 104.0%
  rel. Protein level, N-Ras: 98.6%
  rel. Protein level, NAPSIN-A: 99.4%
  rel. Protein level, NDRG1_pT346: 118.1%
  rel. Protein level, NDUFB4: 100.5%
  rel. Protein level, NF-kB-p65_pS536: 108.3%
  rel. Protein level, Notch1: 105.8%
  rel. Protein level, Notch3: 112.1%
  rel. Protein level, Oct-4: 102.3%
  rel. Protein level, P-Cadherin: 108.3%
  rel. Protein level, PAI-1: 106.1%
  rel. Protein level, PAICS: 98.1%
  rel. Protein level, PAK1: 106.0%
  rel. Protein level, PAK4: 95.1%
  rel. Protein level, PAR: 158.2%
  rel. Protein level, PARP: 104.5%
  rel. Protein level, PCNA: 97.5%
  rel. Protein level, PD-1: 98.8%
  rel. Protein level, PD-L1: 95.8%
  rel. Protein level, PDGFR-b: 124.5%
  rel. Protein level, PDHK1: 102.2%
  rel. Protein level, PDK1: 99.6%
  rel. Protein level, PDK1_pS241: 103.2%
  rel. Protein level, PEA-15: 97.9%
  rel. Protein level, PEA-15_pS116: 98.0%
  rel. Protein level, PI3K-p85: 100.1%
  rel. Protein level, PI3K-p110-a: 107.4%
  rel. Protein level, PI3K-p110-b: 94.8%
  rel. Protein level, PKA-a: 105.1%
  rel. Protein level, PKC-b-II_pS660: 93.7%
  rel. Protein level, PKC-delta_pS664: 98.8%
  rel. Protein level, PKCa: 113.3%
  rel. Protein level, PKM2: 105.8%
  rel. Protein level, PLC-gamma2_pY759: 97.9%
  rel. Protein level, PLK1: 95.0%
  rel. Protein level, PMS2: 96.4%
  rel. Protein level, PR: 96.8%
  rel. Protein level, PRAS40: 104.0%
  rel. Protein level, PRAS40_pT246: 92.3%
  rel. Protein level, PREX1: 102.5%
  rel. Protein level, PTEN: 124.6%
  rel. Protein level, Paxillin: 91.8%
  rel. Protein level, Pdcd4: 120.2%
  rel. Protein level, Porin: 97.8%
  rel. Protein level, RBM15: 105.1%
  rel. Protein level, RIP: 105.6%
  rel. Protein level, RPA32: 98.4%
  rel. Protein level, RPA32_pS4-S8: 102.8%
  rel. Protein level, RSK: 99.0%
  rel. Protein level, Rab11: 102.8%
  rel. Protein level, Rab25: 100.2%
  rel. Protein level, Rad50: 103.9%
  rel. Protein level, Rad51: 89.6%
  rel. Protein level, Raptor: 103.3%
  rel. Protein level, Rb: 106.3%
  rel. Protein level, Rb_pS807_S811: 92.3%
  rel. Protein level, Rheb: 103.3%
  rel. Protein level, Rictor: 126.9%
  rel. Protein level, Rictor_pT1135: 92.3%
  rel. Protein level, S6: 112.2%
  rel. Protein level, S6_pS235_S236: 57.3%
  rel. Protein level, S6_pS240_S244: 51.9%
  rel. Protein level, b-Actin: 97.4%
  rel. Protein level, b-Catenin: 108.4%
  rel. Protein level, b-Catenin_pT41_S45: 96.8%
  rel. Protein level, c-Abl: 95.2%
  rel. Protein level, c-IAP2: 100.4%
  rel. Protein level, c-Jun_pS73: 92.3%
  rel. Protein level, c-Kit: 100.1%
  rel. Protein level, c-Met_pY1234_Y1235: 101.1%
  rel. Protein level, c-Myc: 89.2%
  rel. Protein level, cdc2_pY15: 92.3%
  rel. Protein level, cdc25C: 99.5%
  rel. Protein level, eEF2: 98.9%
  rel. Protein level, eEF2K: 110.8%
  rel. Protein level, eIF4E: 102.9%
  rel. Protein level, eIF4E_pS209: 95.8%
  rel. Protein level, eIF4G: 96.7%
  rel. Protein level, mTOR: 98.9%
  rel. Protein level, mTOR_pS2448: 92.3%
  rel. Protein level, p21: 98.7%
  rel. Protein level, p27-Kip-1: 101.1%
  rel. Protein level, p27_pT198: 100.1%
  rel. Protein level, p38-MAPK: 93.4%
  rel. Protein level, p38_pT180_Y182: 93.4%
  rel. Protein level, p44-42-MAPK: 112.7%
  rel. Protein level, p53: 113.6%
  rel. Protein level, p70-S6K1: 109.6%
  rel. Protein level, p70-S6K_pT389: 92.3%
  rel. Protein level, p90RSK_pT573: 98.5%
10% FBS, 8 hours
  Fak level by RPPA (in words): Fak degradation
  p-Fak level by RPPA (in words): reduced levels of p-Fak
Antibody SCD, 500nM, n = 2
  rel. Protein level [%], SCD: 94.3%
Antibody SDHA, 500nM, n = 2
  rel. Protein level [%], SDHA: 102.0%
Antibody SF2, 500nM, n = 2
  rel. Protein level [%], SF2: 105.3%
Antibody SHP-2_pY542, 500nM, n = 2
  rel. Protein level [%], SHP-2_pY542: 96.4%
Antibody SLC1A5, 500nM, n = 2
  rel. Protein level [%], SLC1A5: 100.8%
Antibody SOD1-, 500nM, n = 2
  rel. Protein level [%], SOD1-: 101.4%
Antibody SOD2, 500nM, n = 2
  rel. Protein level [%], SOD2: 103.5%
Antibody STING, 500nM, n = 2
  rel. Protein level [%], STING: 136.3%
Antibody Shc_pY317, 500nM, n = 2
  rel. Protein level [%], Shc_pY317: 100.3%
Antibody Slfn11, 500nM, n = 2
  rel. Protein level [%], Slfn11: 96.5%
Antibody Smac, 500nM, n = 2
  rel. Protein level [%], Smac: 100.9%
Antibody Smad1, 500nM, n = 2
  rel. Protein level [%], Smad1: 96.6%
Antibody Smad3, 500nM, n = 2
  rel. Protein level [%], Smad3: 110.8%
Antibody Smad4, 500nM, n = 2
  rel. Protein level [%], Smad4: 100.2%
Antibody Snail, 500nM, n = 2
  rel. Protein level [%], Snail: 107.4%
Antibody Sox2, 500nM, n = 2
  rel. Protein level [%], Sox2: 105.3%
Antibody Src, 500nM, n = 2
  rel. Protein level [%], Src: 103.5%
Antibody Src_pY419, 500nM, n = 2
  rel. Protein level [%], Src_pY419: 98.9%
Antibody Src_pY527, 500nM, n = 2
  rel. Protein level [%], Src_pY527: 91.0%
Antibody Stat3, 500nM, n = 2
  rel. Protein level [%], Stat3: 99.2%
Antibody Stat3_pY705, 500nM, n = 2
  rel. Protein level [%], Stat3_pY705: 119.9%
Antibody Stat5a, 500nM, n = 2
  rel. Protein level [%], Stat5a: 111.4%
Antibody Stathmin-1, 500nM, n = 2
  rel. Protein level [%], Stathmin-1: 101.8%
Antibody Syk, 500nM, n = 2
  rel. Protein level [%], Syk: 92.8%
Antibody TAZ, 500nM, n = 2
  rel. Protein level [%], TAZ: 89.0%
Antibody TFAM, 500nM, n = 2
  rel. Protein level [%], TFAM: 107.8%
Antibody TFRC, 500nM, n = 2
  rel. Protein level [%], TFRC: 99.8%
Antibody TIGAR, 500nM, n = 2
  rel. Protein level [%], TIGAR: 96.8%
Antibody TRIM25, 500nM, n = 2
  rel. Protein level [%], TRIM25: 108.0%
Antibody TSC1, 500nM, n = 2
  rel. Protein level [%], TSC1: 106.5%
Antibody TTF1, 500nM, n = 2
  rel. Protein level [%], TTF1: 102.7%
Antibody TUFM, 500nM, n = 2
  rel. Protein level [%], TUFM: 96.9%
Antibody TWIST, 500nM, n = 2
  rel. Protein level [%], TWIST: 96.9%
Antibody Tau, 500nM, n = 2
  rel. Protein level [%], Tau: 101.7%
Antibody Transglutaminase, 500nM, n = 2
  rel. Protein level [%], Transglutaminase: 107.8%
Antibody Tuberin, 500nM, n = 2
  rel. Protein level [%], Tuberin: 106.3%
Antibody Tuberin_pT1462, 500nM, n = 2
  rel. Protein level [%], Tuberin_pT1462: 93.5%
Antibody Tyro3, 500nM, n = 2
  rel. Protein level [%], Tyro3: 98.8%
Antibody U-Histone-H2B, 500nM, n = 2
  rel. Protein level [%], U-Histone-H2B: 108.7%
Antibody UBAC1, 500nM, n = 2
  rel. Protein level [%], UBAC1: 100.4%
Antibody UGT1A, 500nM, n = 2
  rel. Protein level [%], UGT1A: 94.3%
Antibody ULK1_pS757, 500nM, n = 2
  rel. Protein level [%], ULK1_pS757: 100.9%
Antibody VASP, 500nM, n = 2
  rel. Protein level [%], VASP: 108.6%
Antibody VEGFR-2, 500nM, n = 2
  rel. Protein level [%], VEGFR-2: 93.7%
Antibody VHL-EPPK1, 500nM, n = 2
  rel. Protein level [%], VHL-EPPK1: 90.7%
Antibody WIPI1, 500nM, n = 2
  rel. Protein level [%], WIPI1: 112.5%
Antibody WIPI2, 500nM, n = 2
  rel. Protein level [%], WIPI2: 108.8%
Antibody Wee1, 500nM, n = 2
  rel. Protein level [%], Wee1: 92.3%
Antibody Wee1_pS642, 500nM, n = 2
  rel. Protein level [%], Wee1_pS642: 94.7%
Antibody XBP-1, 500nM, n = 2
  rel. Protein level [%], XBP-1: 92.8%
Antibody XPA, 500nM, n = 2
  rel. Protein level [%], XPA: 96.4%
Antibody XPF, 500nM, n = 2
  rel. Protein level [%], XPF: 109.0%
Antibody XRCC1, 500nM, n = 2
  rel. Protein level [%], XRCC1: 104.0%
Antibody YAP, 500nM, n = 2
  rel. Protein level [%], YAP: 95.4%
Antibody YAP_pS127, 500nM, n = 2
  rel. Protein level [%], YAP_pS127: 106.2%
Antibody YB1_pS102, 500nM, n = 2
  rel. Protein level [%], YB1_pS102: 92.3%
Antibody ZAP-70, 500nM, n = 2
  rel. Protein level [%], ZAP-70: 92.5%
